PMC6389950, “Small Peptide Ligands for Targeting EGFR in Triple Negative Breast Cancer Cells” (Scientific Reports, 2019)
Values joined by “and” are separate entries in the source; they are usually repeats but may differ in a detail not shown here. Equal values may be shown once. Where a SMILES comes first, the peptide text is derived from it. The star is where a group is joined. FITC = O=C1OC2(c3ccc(O)cc3Oc3cc(O)ccc32)c2ccc(NC(=S)*)cc21; βAla = NCCC(=O)O

Columns and labels:
EGFR on MDA-MB-231 cells = target: T1, EGFR on MDA-MB-231 cells (Homo sapiens, UniProt P00533); test: Competitive uptake by FACS with excess EGF protein or unlabeled peptide 1; type: cell-based; details: MDA-MB-231 cells (10^5), FITC-peptide 1 μM, 30 min
T1 construct: host or cells: MDA-MB-231
Description: The specific uptake of peptides 1 and 22 was evaluated using a competitive assay. First, MDA-MB-231 cells were incubated with peptide FITC-1 in the presence and absence of excess EGF protein (20-fold). […] The competition experiment was also repeated with peptide 22 in the presence and absence of EGF protein.
In addition, MDA-MB-231 cells (10^5) were incubated with varying concentration of peptide FITC-22 (0–6 μM). The resulting samples were treated as above, and the experiment was repeated. The fluorescence intensity of the FITC peptide-cell complex was plotted against peptide concentration. […] Control group was treated with media alone containing ~5% DMSO. Each group was done in duplicate and the experiment was repeated once.

[1] = Peptide stability in human serum; type: in vitro ADME; details: preliminary results, data not shown
MDA-MB-468 [2] = test: In vitro cellular uptake of FITC-labeled peptides by FACS; type: cell-based; details: 30 min, 37 °C; for Mean Fluorescence Intensity ± SD MDA-MB-468: soluble FITC-β-alanine-labeled peptide 1 µM, FBS free media, 10^5 or 10^6 cells/well, MFI of FITC positive cells, three independent experiments ± SD
Source text: (§1) Flow cytometry was employed to determine the cellular uptake of selected six peptides (1, 4, 22, 23, 26, and 27). As opposed to the membrane bound (conjugated) peptide in library screening, the peptides used here were soluble (or free) FITC-labeled peptides. Peptides were labeled with FITC in the N-terminal and a β-alanine residue was used as a spacer between the FITC and the peptide sequence. The same three TNBC cells lines (MDA-MB-468, MDA-MB-231 and MDA-MB-436) used for peptide array screening were used here as well. Peptides 1 and 4 were used as controls. […] Peptide 4 was included in this experiment to compare the uptake of this keratin 1 binding peptide with the EGFR binding peptides. Peptides 22, 23, 26, and 27 were identified as the best EGFR binding peptides from the library screening.
(§2) Fluorescence-activated cell-sorting (FACS) analysis was used to check the uptake of the FITC-peptides. The stock solution for the FITC-peptides (100 μM) was prepared by dissolving the peptides in sterile water/10% DMSO. MDA-MB-231, MDA-MB-468 and MDA-MB-436 cells were seeded in 6-well plates with 10^6/10^5 cells/well containing 3 mL media and the plates were incubated at 37 °C overnight. The following day, the media was replaced with fresh FBS free media (1 mL) containing FITC-labeled peptide (1 µM), and further incubated at 37 °C for 30 min. Thereafter the media was removed and the cells were washed with cold PBS to remove any remaining peptide. Adequate trypsin was added to each well followed by 3–5 min incubation at 37 °C. Trypsin was immediately neutralized by adding media and the cell suspension was transferred into centrifuge tubes. The cells were separated and washed twice with FACS sheath fluid. The control cells were treated similarly but without peptide. Two wells were assigned for each peptide and each well sample was read twice in FACS machine. The experiment was repeated once. MFI represents the average of all wells for each peptide.

MDA-MB-436 [3] = test: as above; type: cell-based; details: soluble FITC-β-alanine-labeled peptide 1 µM, 30 min, 37 °C, FBS free media, 10^5 or 10^6 cells/well, MFI of FITC positive cells, three independent experiments ± SD
Source text: as §1, §2

MDA-MB-231 [4] = test: as above; type: cell-based; details: 30 min, 37 °C; for Mean Fluorescence Intensity ± SD MDA-MB-231: soluble FITC-β-alanine-labeled peptide 1 µM, FBS free media, 10^5 or 10^6 cells/well, MFI of FITC positive cells, three independent experiments ± SD
Source text: as §1, §2

MDA-MB-468 [5] = test: Peptide array-whole cell binding assay; type: cell-based; details: peptide conjugated to cellulose membrane (amino-PEG500), no free C-terminus; cells 75 × 10^3 cells/mL, 37 °C, 4 h; CyQUANT fluorescence relative to peptide 1; spots in duplicate
Source text: (§3) Peptide array on the cellulose membrane was used to evaluate the binding of each peptide to different cell lines. The amino functionalized cellulose membrane provided by Intavis is acid hardened providing high stability at pH range from 1–14, permitting its use in acidic or basic conditions while maintaining membrane integrity. The PEG linker on membrane surface functions as a hydrophilic spacer between the peptide and the solid surface (membrane) reducing background signal. Cell lines were carefully selected for screening peptides as our goal here is to screen peptides with high binding/uptake by the TNBC cells. […] EGFR is overexpressed by a number of TNBC cells such as MDA-MB-468 (obtained from primary tumor source) and MDA-MB-231 (from metastasis cancer tissue)[13],[14]. While other TNBC cells like MDA-MB-436 (obtained from metastasis cancer tissue) are known to express low levels of EGFR. Non-tumorigenic epithelial MCF10A and MCF12A cells derived from the breast tissue also express low levels of EGFR[14],[34]. We selected two TNBC cell lines with relatively high expression of EGFR expression (MDA-MB-468/231) and a TNBC cell line with low level of EGFR expression (MDA-MB-436) for the peptide array screening experiments. In addition, non- tumorigenic cell line, MCF-10A was used for comparison. These four cell lines were allowed to bind the membrane by seeding the cells on the membrane and the bound cells were labeled with a fluorescent dye CyQUANT.
(§4) For the binding assay, the peptide array was incubated with the cells in sequential steps as described previously. Briefly peptide array membrane was dipped in ethanol for 30 s to remove any precipitation on it, followed by dipping in sterile PBS (pH 7.4) for another 30 min. The cells (75 × 10^3 cells/mL) were seeded directly on the membrane in a sterile plate and incubated at 37 °C for 4 h. The unbound cells were washed out with sterile PBS (pH 7.4). Thereafter the membrane was placed in a sealed bag and transferred to −80 °C freezer for 2 h. Subsequently it was defrosted at room temperature and treated with CyQUANT solution. The CyQUANT concentration was optimized based on the manufacturer’s protocol and preliminary experiments. Membrane was incubated at 37 °C for 30 min with the dye. After washing with sterile PBS and air drying using blow dryer, the membrane was scanned using Bio-rad chemidoc imager with image lab software. The settings were adjusted based on the excitation (465 nm) and emission (535 nm) wavelengths of CyQUANT dye. Epi Blue was selected for the light source (455–485 nm) and filter number 4 (blue filter, 518–546 nm) was employed. The fluorescence intensity of cancer cells read using chemidoc imager was normalized using the non-cancer cell fluorescence intensity. Eventually relative fluorescence was assessed to select peptides with high affinity to cancer cells and low or minimal binding to normal cells.

MDA-MB-436 [6] = test: Peptide array-whole cell binding assay; type: cell-based; details: peptide conjugated to cellulose membrane (amino-PEG500), no free C-terminus; cells 75 × 10^3 cells/mL, 37 °C, 4 h; CyQUANT fluorescence relative to peptide 1; spots in duplicate
Source text: as §3, §4

MDA-MB-231 [7] = test: Peptide array-whole cell binding assay; type: cell-based; details: peptide conjugated to cellulose membrane (amino-PEG500), no free C-terminus; cells 75 × 10^3 cells/mL, 37 °C, 4 h; CyQUANT fluorescence relative to peptide 1; spots in duplicate
Source text: as §3, §4

MCF-10A = test: Peptide array-whole cell binding assay; type: cell-based; details: non-tumorigenic cells; peptide conjugated to cellulose membrane (amino-PEG500); cells 75 × 10^3 cells/mL, 37 °C, 4 h; CyQUANT fluorescence relative to peptide 1; spots in duplicate
Source text: as §3, §4

breast cancer cells = details: compared to linear peptide 18–4; cited from earlier work
Source text: (§5) We found a region in EGF that may have structural similarity to peptide 22 (Fig. 4b). There is low sequence homology between the two sequences (peptide 22 and 12-residue region of EGF), however, based on the pr ...

[8] = cited from earlier work
Source text: as §5

[9] = target: T2, epidermal growth factor receptor (EGFR or ErbB1) (human (endogenous in MDA-MB-468, …, UniProt P00533 25-1210)); test: flow cytometry on cells; competition: MDA-MB-231 cells (10^5); EGF (20 µM, 20-fold excess) or unlabeled peptide 1 (100 µM, 100-fold excess) added first, then FITC-labelled peptide 1 or 22 (1 µM), 30 min; details: one partner purified
T2 construct: epidermal growth factor receptor, endogenous on human breast cell lines; expression levels are cited, not measured here; no isolated EGFR was used

[10] = soluble FITC-labeled peptide 1 µM

| Molecule | Mean Fluorescence Intensity ± SD MDA-MB-468 (MDA-MB-468 [2]) | Mean Fluorescence Intensity ± SD MDA-MB-436 (MDA-MB-436 [3]) | Mean Fluorescence Intensity ± SD MDA-MB-231 (MDA-MB-231 [4]) | Relative Cell Adhesion MDA-MB-468 (MDA-MB-468 [5]) | Relative Cell Adhesion MDA-MB-436 (MDA-MB-436 [6]) | Relative Cell Adhesion MDA-MB-231 (MDA-MB-231 [7]) | Relative Cell Adhesion MCF-10A (MCF-10A) | further results |
| --- | --- | --- | --- | --- | --- | --- | --- | --- |
| CC[C@H](C)[C@H](NC(=O)[C@@H](NC(=O)[C@H](CC(N)=O)NC(=O)[C@H](CCC(=O)O)NC(=O)[C@@H]1CCCN1C(=O)[C@@H](NC(=O)[C@H](Cc1ccc(O)cc1)NC(=O)CNC(=O)[C@H](Cc1ccc(O)cc1)NC(=O)[C@H](Cc1c[nH]c2ccccc12)NC(=O)[C@H](Cc1c[nH]cn1)NC(=O)[C@@H](N)Cc1ccc(O)cc1)[C@@H](C)O)C(C)C)C(=O)O [Peptide 22] (H-YHWYGYTPENVI-OH) | 8384 ± 735 | 41 ± 27 | 1978 ± 522 | 1.6 | 1.3 | 2.6 | 1.2 | FITC positive cells, no competitor (EGFR on MDA-MB-231 cells; rounded value): 99%; Decrease in fluorescence / FITC positive cells in the presence of 20-fold excess EGF protein (EGFR on MDA-MB-231 cells; EGF 20 μM): 97%; FITC positive cells in the presence of 20-fold excess EGF protein (EGFR on MDA-MB-231 cells; EGF 20 μM, rounded value): 2%; Stability in the presence of human serum (in words) [1]: short half-life; Uptake compared to peptide 1, MDA-MB-468 (MDA-MB-468 [2]; [10]): 123 fold; Uptake compared to peptide 1, MDA-MB-231 (MDA-MB-231 [4]; [10]): 47 fold |
| FITC-AβYHWYGYTPQNVI [FITC-1, reference compound] | – | – | – | – | – | – | – | Decrease in fluorescence in the presence of 100-fold excess unlabeled peptide 1 (EGFR on MDA-MB-231 cells; unlabeled peptide 1 100 μM): 19.5% |
| Peptide 1: previously reported EGFR targeting dodecapeptide GE11 (YHWYGYTPQNVI), lead peptide [reference compound] | 68 ± 45 | 105 ± 11 | 42 ± 8 | – | – | – | – | Stability in the presence of human serum (in words) [1]: short half-life |
| Peptide 4: positive control peptide p160, VPWXEPAYQRFL, binds keratin 1 [reference compound] | 23741 and 23741 ± 3068 | 305 ± 58 | 4791 ± 354 | 1.1 | 1.1 | 1.3 | 1.2 | – |
| YHWYGYTPKNVI [Peptide 26] | 6457 ± 557 | 16 ± 18 | 1877 ± 67 | 1.3 | 1.0 | 1.6 | 0.8 | – |
| YHWYGYTPQDVI [Peptide 23] | 4661 ± 883 | 36 ± 14 | 1631 ± 110 | 1.6 | 1.0 | 2.8 | 1.4 | – |
| YHWYGYTPQKVI [Peptide 27] | 5248 ± 407 | 21 ± 17 | 1683 ± 163 | 1.2 | 1.0 | 1.8 | 1.0 | – |
| cyclic WXEAAYQkFL (head to tail) [N- to C terminal cyclized analogue of breast cancer targeting peptide 18–4, k is D-lysine] | – | – | – | – | – | – | – | Uptake by the breast cancer cells compared to the linear peptide (in words) (breast cancer cells): higher uptake; Stability toward proteolytic degradation (in words) [8]: stable toward proteolytic degradation |
| {FITC-βAla}-YHWYGYTPENVI-OH (GE11 analogue, Q9E; also called peptide FITC-22; FITC-22; source: synthetic peptide (Fmoc-SPPS, RP-HPLC purified)) [FITC-labeled soluble peptide 22] | – | – | – | – | – | – | – | percent FITC positive cells, with 20-fold excess EGF [9]: 2% |
